In one series the test system is NZB5. As to the kind of experiment: Cellular growth inhibition, NZB5 (3H-thymidine incorporation). Type of series: cell-based, human. How it is done:
(§1) The compounds were evaluated against two early passage human cell lines NZB5 and NZOV9 (Marshall et al., Oncol. Res. 2004, 14, 297). The cells were grown in ITS medium (α-modified minimal essential medium supplemented insulin, transferrin, selenite, and 5% fetal bovine serum) and grown on 96-well tissue culture plates under an atmosphere of 5% O2, 5% CO2, and 90% N2. Individual wells contained 500-1,000 cells (depending on the growth rate) in a volume of 150 μL. Compounds were added at 10-fold concentration steps to a maximum of 20 μM and plates were incubated for five days, with ^3H-thymidine being added over the last 6 hrs. Cells were harvested and incorporated radioactivity measured. Duplicate samples were analyzed for each compound dose with multiple control samples.
On the technique in general: Incorporation of labelled thymidine or its analogues reports DNA synthesis.

The subject of another series is NZOV9. As to the kind of experiment: Cellular growth inhibition, NZOV9 (3H-thymidine incorporation). Type of series: cell-based, human. The procedure:
as §1

Setting [1] is: Homo sapiens, NZB5, read-out: Cell IC50 NZB5.
[2] abbreviates: Homo sapiens, NZOV9, read-out: Cell IC50 NZOV9.
[3] abbreviates: Homo sapiens, NZB5, five days incubation, 3H-thymidine over the last 6 hrs, read-out: Cell IC50 NZB5.
The mark [4] stands for this setting: Homo sapiens, NZOV9, five days incubation, 3H-thymidine over the last 6 hrs, read-out: Cell IC50 NZOV9.
Setting [5] is: read-out: Cell IC50 NZB5, five days incubation, 3H-thymidine over the last 6 hrs.
The mark [6] stands for this setting: read-out: Cell IC50 NZOV9, five days incubation, 3H-thymidine over the last 6 hrs.

Where a name gives a salt, the structure may show the parent alone. Read-outs that look alike come from different tables or passages of the source.

For orientation: melting point means the temperature, or range, at which the solid turns liquid. Compound `COc1cccc2c1nc(C(F)F)n2-c1nc(N2CCOCC2)nc(N2CCC(N(CCCN(C)C)S(=O)(=O)CCl)CC2)n1` (as salt: hydrochloride) [Example 60, chloro-N-{1-[4-[2-(difluoromethyl)-4-methoxy-1H-benzimidazol-1-yl]-6-(4-morpholinyl)-1,3,5-triazin-2-yl]-4-piperidinyl}-N-[3-(dimethylamino)propyl]methanesulfonamide] had a melting point of 260 to 263 °C. Broadly, the IC50 is the midpoint of a concentration-inhibition curve. `COc1cccc2c1nc(C(F)F)n2-c1nc(N2CCOCC2)nc(N2CCC(N(C)S(C)(=O)=O)C2)n1` (stereo in doubt) [Example 39, N-{(3S)-1-[4-[2-(difluoromethyl)-4-methoxy-1H-benzimidazol-1-yl]-6-(4-morpholinyl)-1,3,5-triazin-2-yl]pyrrolidinyl}-N-methylmethanesulfonamide]: the melting point was 244 to 247 °C. For the same compound, in the series with NZB5 (setting [1]), the half-inhibitory concentration (IC50) lay in the range of 100 to 1000 nM. Besides, the half-inhibitory concentration (IC50) in the series with NZOV9 (setting [2]) is below 100 nM.

As for `COc1cccc2c1nc(C(F)F)n2-c1nc(N2CCOCC2)nc(N2CCCC(NS(=O)(=O)CCl)C2)n1` (stereo in doubt) [Example 62, chloro-N-{(3S)-1-[4-[2-(difluoromethyl)-4-methoxy-1H-benzimidazol-1-yl]-6-(4-morpholinyl)-1,3,5-triazin-2-yl]-3-piperidinyl}methanesulfonamide], the melting point is 166 to 168 °C. `COc1cccc2c1nc(C(F)F)n2-c1nc(OC2CCN(S(=O)(=O)CCN3CCN(S(C)(=O)=O)CC3)CC2)nc(N2CCOCC2)n1` [Example 52, 2-(difluoromethyl)-4-methoxy-1-[4-{[1-({2-[4-(methylsulfonyl)-1-piperazinyl]ethyl}sulfonyl)-4-piperidinyl]oxy}-6-(4-morpholinyl)-1,3,5-triazin-2-yl]-1H-benzimidazole] yielded a melting point of 251 to 254 °C. Further, in the series with NZB5 (setting [3]), the 50% inhibitory concentration (IC50) is above 1000 nM. Also, in the series with NZOV9 (setting [4]), the concentration for half-maximal inhibition (IC50) is above 1000 nM.

`COc1cccc2c1nc(C(F)F)n2-c1nc(N2CCOCC2)nc(N2CCCC(N(C)S(C)(=O)=O)C2)n1` (stereo in doubt) [Example 47, N-{(3S)-1-[4-[2-(difluoromethyl)-4-methoxy-1H-benzimidazol-1-yl]-6-(4-morpholinyl)-1,3,5-triazin-2-yl]piperidinyl}-N-methylmethanesulfonamide]: the melting point lay in the range of 221 to 223 °C. Besides, the IC50 with NZB5 (setting [1]) lay in the range of 100 to 1000 nM. Also, the IC50 in the series on NZOV9 (setting [2]) was below 100 nM. In the case of `COc1cccc2c1nc(C(F)F)n2-c1nc(-c2ccc(S(=O)(=O)N3CCN(C)CC3)cc2)nc(N2CCOCC2)n1` (as salt: methanesulfonate) [Example 95, 2-(difluoromethyl)-4-methoxy-1-[4-{4-[(4-methyl-1-piperazinyl)sulfonyl]phenyl}-6-(4-morpholinyl)-1,3,5-triazin-2-yl]-1H-benzimidazole], the melting point is 289 to 292 °C. Turning to `COc1cccc2c1nc(C(F)F)n2-c1nc(N[C@H]2CCN(S(C)(=O)=O)C2)nc(N2CCOCC2)n1` [Example 34, 4-[2-(difluoromethyl)-4-methoxy-1H-benzimidazol-1-yl]-N-[(3S)-1-(methylsulfonyl)pyrrolidinyl]-6-(4-morpholinyl)-1,3,5-triazin-2-amine], the values for the IC50 in the series with NZB5 (setting [5]) and with NZOV9 (setting [6]) were 100 to 1000 nM and below 100 nM, respectively. Regarding `COc1cccc2c1nc(C(F)F)n2-c1nc(N[C@H]2CC[C@H](NS(C)(=O)=O)CC2)nc(N2CCOCC2)n1` [Example 78, trans-N-(4-{[4-[2-(difluoromethyl)-4-methoxy-1H-benzimidazol-1-yl]-6-(4-morpholinyl)-1,3,5-triazin-2-yl]amino}cyclohexyl)methanesulfonamide], the melting point fell in the range of 269 to 272 °C. The IC50 in the series with NZB5 (setting [1]) was 100 to 1000 nM. Also, in the series on NZOV9 (setting [2]), the IC50 is below 100 nM. Compound `CN(C)CCS(=O)(=O)N1CCN(c2nc(N3CCOCC3)nc(-n3c(C(F)F)nc4ccccc43)n2)CC1` (as salt: hydrochloride) [Example 83, N-[2-({4-[4-[2-(difluoromethyl)-1H-benzimidazol-1-yl]-6-(4-morpholinyl)-1,3,5-triazin-2-yl]-1-piperazinyl}sulfonyl)ethyl]-N,N-dimethylamine] came in with a melting point of 244 to 246 °C.

For `COc1cccc2c1nc(C(F)F)n2-c1nc(N2CCOCC2)nc(N(C)[C@H]2CCN(S(C)(=O)=O)C2)n1` [Example 35, 4-[2-(difluoromethyl)-4-methoxy-1H-benzimidazol-1-yl]-N-methyl-N-[(3S)-1-(methylsulfonyl)pyrrolidinyl]-6-(4-morpholinyl)-1,3,5-triazin-2-amine], the IC50 with NZB5 (setting [5]) and in the series with NZOV9 (setting [6]) was below 100 nM in each case. In turn, `COc1cccc2c1nc(C(F)F)n2-c1nc(-c2ccc(N(C)S(=O)(=O)CCN(C)C)cc2)nc(N2CCOCC2)n1` (as salt: methanesulfonate) [Example 75, N-{4-[4-[2-(difluoromethyl)-4-methoxy-1H-benzimidazol-1-yl]-6-(4-morpholinyl)-1,3,5-triazin-2-yl]phenyl}-2-(dimethylamino)-N-methylethanesulfonamide] returned a melting point of 218 to 220 °C.

As for `COc1cccc2c1nc(C(F)F)n2-c1nc(OC2CCN(S(=O)(=O)CCN3CCOCC3)CC2)nc(N2CCOCC2)n1` (as salt: hydrochloride) [Example 51, 2-(difluoromethyl)-4-methoxy-1-{4-(4-morpholinyl)-6-[(1-{[2-(4-morpholinyl)ethyl]sulfonyl}-4-piperidinyl)oxy]-1,3,5-triazin-2-yl}-1H-benzimidazole], the melting point lay in the range of 255 to 259 °C. `COc1cccc2c1nc(C(F)F)n2-c1nc(N2CCOCC2)c2cnn(C3CCN(S(=O)(=O)CCN(C)C)CC3)c2n1` [Example 99, N-[2-({4-[6-[2-(difluoromethyl)-4-methoxy-1H-benzimidazol-1-yl]-4-(4-morpholinyl)-1H-pyrazolo[3,4-d]pyrimidin-1-yl]-1-piperidinyl}sulfonyl)ethyl]-N,N-dimethylamine]: the IC50 in the series with NZB5 (setting [3]) and in the series on NZOV9 (setting [4]) was below 100 nM throughout. Regarding `COc1cccc2c1nc(C(F)F)n2-c1nc(OC2CCN(S(=O)(=O)CCN3CCOCC3)CC2)nc(N2CCOCC2)n1` [Example 51, 2-(difluoromethyl)-4-methoxy-1-{4-(4-morpholinyl)-6-[(1-{[2-(4-morpholinyl)ethyl]sulfonyl}-4-piperidinyl)oxy]-1,3,5-triazin-2-yl}-1H-benzimidazole], the IC50 was above 1000 nM with NZB5 (setting [3]) and 100 to 1000 nM in the series on NZOV9 (setting [4]).

The compound `COc1cccc2c1nc(C(F)F)n2-c1nc(-c2ccc(NS(=O)(=O)CCN(C)C)cc2)nc(N2CCOCC2)n1` (as salt: methanesulfonate) [Example 74, N-{4-[4-[2-(difluoromethyl)-4-methoxy-1H-benzimidazol-1-yl]-6-(4-morpholinyl)-1,3,5-triazin-2-yl]phenyl}-2-(dimethylamino)ethanesulfonamide] displayed a melting point of 218 to 220 °C.

The compound `COc1cccc2c1nc(C(F)F)n2-c1nc(N2CCOCC2)nc(N(C)C2CCCN(S(C)(=O)=O)C2)n1` (centres unmarked) displayed a melting point of 201 to 203 °C. `COc1cccc2c1nc(C(F)F)n2-c1nc(N2CCOCC2)c2cnn(C3CCN(S(=O)(=O)CCN(C)C)CC3)c2n1` (as salt: methanesulfonate) [Example 99, N-[2-({4-[6-[2-(difluoromethyl)-4-methoxy-1H-benzimidazol-1-yl]-4-(4-morpholinyl)-1H-pyrazolo[3,4-d]pyrimidin-1-yl]-1-piperidinyl}sulfonyl)ethyl]-N,N-dimethylamine] returned a melting point of 191 to 193 °C. Take `COc1cccc2c1nc(C(F)F)n2-c1nc(N[C@H]2CC[C@@H](NS(C)(=O)=O)CC2)nc(N2CCOCC2)n1` [Example 79, cis-N-(4-{[4-[2-(difluoromethyl)-4-methoxy-1H-benzimidazol-1-yl]-6-(4-morpholinyl)-1,3,5-triazin-2-yl]amino}cyclohexyl)methanesulfonamide]: the IC50 was 100 to 1000 nM in the series with NZB5 (setting [1]) and below 100 nM with NZOV9 (setting [2]).

For the compound `COc1cc(N)cc2c1nc(C(F)F)n2-c1nc(N2CCOCC2)nc(N2CCN(S(=O)(=O)CCN(C)C)CC2)n1` (as salt: methanesulfonate) [Example 84, N-[2-({4-[4-[6-amino-2-(difluoromethyl)-4-methoxy-1H-benzimidazol-1-yl]-6-(4-morpholinyl)-1,3,5-triazin-2-yl]-1-piperazinyl}sulfonyl)ethyl]-N,N-dimethylamine], the melting point is 238 °C (dec.). The compound `COc1cccc2c1nc(C(F)F)n2-c1nc(N2CCOCC2)nc(N(CCCN(C)C)C2CCN(S(=O)(=O)CCl)CC2)n1` (as salt: hydrochloride) [Example 59, N^1-{1-[(chloromethyl)sulfonyl]-4-piperidinyl}-N^1-[4-[2-(difluoromethyl)-4-methoxy-1H-benzimidazol-1-yl]-6-(4-morpholinyl)-1,3,5-triazin-2-yl]-N^3,N^3-dimethyl-1,3-propanediamine] registered a melting point of 222 to 225 °C. As to `COc1cc(N)cc2c1nc(C(F)F)n2-c1nc(N2CCOCC2)nc(N2CCN(S(=O)(=O)CCN(C)C)CC2)n1` [Example 84, N-[2-({4-[4-[6-amino-2-(difluoromethyl)-4-methoxy-1H-benzimidazol-1-yl]-6-(4-morpholinyl)-1,3,5-triazin-2-yl]-1-piperazinyl}sulfonyl)ethyl]-N,N-dimethylamine], the half-maximal inhibitory concentration (IC50) is below 100 nM in the series on NZB5 (setting [3]) and above 1000 nM in the series with NZOV9 (setting [4]).

The record behind these values is US8772287B2, “Pyrimidinyl and 1,3,5-triazinyl benzimidazole sulfonamides and their use in cancer therapy” (VetDC, Inc., priority 2009, dated 2014).
